Measurements taken from ChEMBL document CHEMBL3046039, “In vivo antidiabetic activity and in silico studies on adenosine monophosphate-activated protein kinase (AMPK) of (2E,5E)-2,5-bis(4-hydroxy-3-methoxybenzylidene) cyclopentanone” (2013).
Calls of active or inactive are those of the source. No cut-off for these calls is given here.

Experiments:
Rattus norvegicus [1] = experiment: In vivo antidiabetic activity in streptozotocin-induced diabetic Wistar Rattus norvegicus (rat) assessed as reduction in serum glucose level at 10 mg/kg, po measured after 4 hr by glucose oxidase method; type: functional, organism-based; parameters: dose 10 mg/kg
Rattus norvegicus [2] = experiment: Increase in glucose tolerance in fasted normoglycemic Wistar Rattus norvegicus (rat) assessed as suppression of blood glucose AUC at 10 mg/kg, po measured at 30-120 min post-glucose challenge by oral glucose tolerance test; type: functional, organism-based; parameters: dose 10 mg/kg
Rattus norvegicus [3] = experiment: In vivo antidiabetic activity in streptozotocin-induced diabetic Wistar Rattus norvegicus (rat) assessed as reduction in serum glucose level at 0.5 mg/kg, po for 7 days measured at 30 to 120 min post-glucose challenge by oral glucose tolerance test; type: functional, organism-based; parameters: dose 0.5 mg/kg
Rattus norvegicus [4] = experiment: In vivo antidiabetic activity in streptozotocin-induced diabetic Wistar Rattus norvegicus (rat) assessed as serum total cholesterol level at 0.5 mg/kg, po for 7 days by spectrophotometric analysis (reference value: 126.62 +/-4.7 mg/dl); type: functional
Rattus norvegicus [5] = experiment: In vivo antidiabetic activity in streptozotocin-induced diabetic Wistar Rattus norvegicus (rat) assessed as serum triglyceride level at 0.5 mg/kg, po for 7 days by spectrophotometric analysis (reference value: 128.77 +/-6.3 mg/dl); type: functional
Rattus norvegicus [6] = experiment: In vivo antidiabetic activity in streptozotocin-induced diabetic Wistar Rattus norvegicus (rat) assessed as serum LDL-cholesterol level at 0.5 mg/kg, po for 7 days by spectrophotometric analysis (reference value: 80.75 +/-3.4 mg/dl); type: functional
Rattus norvegicus [7] = experiment: In vivo antidiabetic activity in streptozotocin-induced diabetic Wistar Rattus norvegicus (rat) assessed as serum VLDL-cholesterol level at 0.5 mg/kg, po for 7 days by spectrophotometric analysis (reference value: 28.12 +/-1.5 mg/dl); type: functional
Rattus norvegicus [8] = experiment: In vivo antidiabetic activity in streptozotocin-induced diabetic Wistar Rattus norvegicus (rat) assessed as serum HDL-cholesterol level at 0.5 mg/kg, po for 7 days by spectrophotometric analysis (reference value: 17.52 +/-2.1 mg/dl); type: functional
Rattus norvegicus [9] = experiment: Increase in sucrose tolerance in fasted normoglycemic Wistar Rattus norvegicus (rat) assessed as reduction in serum glucose level at 7 mg/kg, po measured at 30-120 min post-sucrose challenge by oral sucrose tolerance test; type: functional, organism-based; parameters: dose 7 mg/kg
Rattus norvegicus [10] = experiment: In vivo antidiabetic activity in streptozotocin-induced diabetic Wistar Rattus norvegicus (rat) assessed as reduction in serum glucose level at 25 mg/kg, po for 7 days measured at 30 to 120 min post-glucose challenge by oral glucose tolerance test; type: functional, organism-based; parameters: dose 25 mg/kg
Rattus norvegicus [11] = experiment: In vivo antidiabetic activity in streptozotocin-induced diabetic Wistar Rattus norvegicus (rat) assessed as reduction in serum glucose level at 25 mg/kg, po measured after 2 to 4 hr by glucose oxidase method; type: functional, organism-based; parameters: dose 25 mg/kg
Rattus norvegicus [12] = experiment: Increase in sucrose tolerance in fasted normoglycemic Wistar Rattus norvegicus (rat) assessed as reduction in serum glucose level at 25 mg/kg, po measured at 30-120 min post-sucrose challenge by oral sucrose tolerance test; type: functional, organism-based; parameters: dose 25 mg/kg
Rattus norvegicus [13] = experiment: Increase in glucose tolerance in fasted normoglycemic Wistar Rattus norvegicus (rat) assessed as suppression of blood glucose AUC at 25 mg/kg, po measured at 30-120 min post-glucose challenge by oral glucose tolerance test; type: functional, organism-based; parameters: dose 25 mg/kg
Rattus norvegicus [14] = experiment: In vivo antidiabetic activity in streptozotocin-induced diabetic Wistar Rattus norvegicus (rat) assessed as serum HDL-cholesterol level at 25 mg/kg, po for 7 days by spectrophotometric analysis (reference value: 17.52 +/-2.1 mg/dl); type: functional
Rattus norvegicus [15] = experiment: In vivo antidiabetic activity in streptozotocin-induced diabetic Wistar Rattus norvegicus (rat) assessed as serum total cholesterol level at 25 mg/kg, po for 7 days by spectrophotometric analysis (reference value: 126.62 +/-4.7 mg/dl); type: functional
Rattus norvegicus [16] = experiment: In vivo antidiabetic activity in streptozotocin-induced diabetic Wistar Rattus norvegicus (rat) assessed as serum triglyceride level at 25 mg/kg, po for 7 days by spectrophotometric analysis (reference value: 128.77 +/-6.3 mg/dl); type: functional
Rattus norvegicus [17] = experiment: In vivo antidiabetic activity in streptozotocin-induced diabetic Wistar Rattus norvegicus (rat) assessed as serum LDL-cholesterol level at 25 mg/kg, po for 7 days by spectrophotometric analysis (reference value: 80.75 +/-3.4 mg/dl); type: functional
Rattus norvegicus [18] = experiment: In vivo antidiabetic activity in streptozotocin-induced diabetic Wistar Rattus norvegicus (rat) assessed as serum VLDL-cholesterol level at 25 mg/kg, po for 7 days by spectrophotometric analysis (reference value: 28.12 +/-1.5 mg/dl); type: functional

COc1ccc(Cl)cc1C(=O)NCCc1ccc(S(=O)(=O)NC(=O)NC2CCCCC2)cc1 [GLYBURIDE]
inhibition (Rattus norvegicus [1]): Active | Activity (Rattus norvegicus [2]): Active | inhibition (Rattus norvegicus [3]): Active | Activity (Rattus norvegicus [4]): 81.9 mg/dL | Activity (Rattus norvegicus [5]): 87.4 mg/dL | Activity (Rattus norvegicus [6]): 39.5 mg/dL | Activity (Rattus norvegicus [7]): 19.4 mg/dL | Activity (Rattus norvegicus [8]): 27.3 mg/dL

C[C@H]1O[C@H](O[C@H]2[C@H](O)[C@@H](O)[C@@H](O[C@H]3[C@H](O)[C@@H](O)C(O)O[C@@H]3CO)O[C@@H]2CO)[C@H](O)[C@@H](O)[C@@H]1N[C@H]1C=C(CO)[C@@H](O)[C@H](O)[C@H]1O (stereo partly drawn)
Activity (Rattus norvegicus [9]): Active

COc1cc(/C=C2\CC/C(=C\c3ccc(O)c(OC)c3)C2=O)ccc1O
inhibition (Rattus norvegicus [10]): Active | inhibition (Rattus norvegicus [11]): Active | Activity (Rattus norvegicus [12]): Active | Activity (Rattus norvegicus [13]): Active | Activity (Rattus norvegicus [14]): 26.03 mg/dL | Activity (Rattus norvegicus [15]): 80.41 mg/dL | Activity (Rattus norvegicus [16]): 81.9 mg/dL | Activity (Rattus norvegicus [17]): 25.4 mg/dL | Activity (Rattus norvegicus [18]): 20.98 mg/dL
